Where two headings read alike, the source gives them in different places.
Legend:
Pfnek-1 = Pfnek-1 (Plasmodium falciparum, UniProt Q8I5D5); test: Pfnek-1 protein kinase assay (33P incorporation in β-casein); format: biochemical
Experimental: A GST-Pfnek-1 fusion protein was purified from the Escherichia coli BL21 strain carrying a Pfnek-1 expression plasmid harbouring an ampicillin resistance cassette (bacteria kindly provided by D. Dorin, INSERM 511) as described by Dorin et al.. Pfnek-1 kinase activity was determined by measuring the ^33P incorporation in ß-caseine using γ[^33P]-ATP.
Briefly, test compounds were dissolved in DMSO and diluted in 20 mM Tris, pH 7.5 20 mM MgCl2, 10 mM NaF and 10 mM ATP. β-casein (3 mg/mL) and γ[^33P]-ATP were added prior to the addition of Pfnek-1 to start the kinase reaction. Approximately 5 μCi of γ[^33P]-ATP was used per reaction. After incubation at 30 °C for 30 min, each solution was blotted on a phosphocellulose filter paper (P81 Whatman-cation exchange chromatography paper). After four washes with 1% H3PO4 at, the remaining radioactivity was measured using a liquid scintillation analyzer Packard 1600TR. The IC50 is defined as the concentration of compound which inhibits 50% of enzyme activity compared to the control (reaction in the absence of inhibitor).

[1] = system: chloroquine-resistant Plasmodium falciparum strain FcB1; test: Activity against erythrocytic stages of cultured P. falciparum (LDH assay); format: cell-based; conditions: for IC50: read-out: FCB1 of P. falciparum IC50; for Antiplasmodial activity against FcB1 P. falciparum (in words): in vitro
Experimental: The antiplasmodial activity was studied in vitro against the chloroquine-resistant Plasmodium falciparum strain FcB1 by a micromethod using the lactate deshydrogenase (LDH) assay (Makler and Hinrichs). Parasites were cultivated using the method of Trager and Jensen. Erythrocytes infected with P. falciparum (ring stage, 1% of parasitaemia) were re-suspended in complete culture medium at a haematocrit of 1.5%. The suspension was distributed in 96-well microtitre plates (200 μL per well). Drug testing was performed in triplicate. For each assay, a parasite culture was incubated with the drug for 48 h in 5% CO2 at 95% relative humidity, and frozen until the biochemical assay could be run. After defrosting, a 20 μL sub-sample of the contents of each well was mixed with 100 μL of a substrate solution containing 20 mg/mL of lithium L-lactate (Sigma), 5.5 mg/mL of TRIS (Sigma), and 3.7 mg/mL of 3-acetylpyridine adenine dinucleotide (APAD; Sigma), in the well of another microtitre plate. After incubation for 30 min, 25 μL of a mixture of NBT (1.6 mg/mL; Sigma) and PES (0.1 mg/mL; Sigma) were added to each well. After a further 35 min of incubation, the reaction was stopped by the addition of 25% acetic acid (25 μL per well). Accumulation of the reduced form of APAD was measured at λ = 650 nm, using a spectrophotometer (microplate reader, Metertech). IC50 values were determined graphically in a concentration versus percent inhibition curve.

Escherichia coli = test: Antibacterial disc growth inhibition test, E. coli; format: cell-based
Experimental: Activity was evaluated by the standard […] with human pathogenic Staphylococcus aureus and Escherichia coli at 100 μg/disc for a disc of 6 mm diameter (Table 3). […] Bromotyrosine metabolites have already been reported as antibacterials.

Staphylococcus aureus = test: Antibacterial disc growth inhibition test, S. aureus; format: cell-based
[2] = system: chloroquine-resistant Plasmodium falciparum strain FcB1; parameters: method as in PMID 15124089; conditions: isolated from leaves of Glossocalyx brevipes; cited from earlier work
[3] = GST-Pfnek-1, β-casein substrate, 30 °C, 30 min
[4] = Plasmodium falciparum, FcB1 strain, 48 h incubation, LDH readout
[5] = 100 μg/disc, disc of 6 mm diameter
[6] = FcB1 strain, 48 h incubation, LDH readout

Sequence of Pfnek-1 (Q8I5D5 entry or part of it): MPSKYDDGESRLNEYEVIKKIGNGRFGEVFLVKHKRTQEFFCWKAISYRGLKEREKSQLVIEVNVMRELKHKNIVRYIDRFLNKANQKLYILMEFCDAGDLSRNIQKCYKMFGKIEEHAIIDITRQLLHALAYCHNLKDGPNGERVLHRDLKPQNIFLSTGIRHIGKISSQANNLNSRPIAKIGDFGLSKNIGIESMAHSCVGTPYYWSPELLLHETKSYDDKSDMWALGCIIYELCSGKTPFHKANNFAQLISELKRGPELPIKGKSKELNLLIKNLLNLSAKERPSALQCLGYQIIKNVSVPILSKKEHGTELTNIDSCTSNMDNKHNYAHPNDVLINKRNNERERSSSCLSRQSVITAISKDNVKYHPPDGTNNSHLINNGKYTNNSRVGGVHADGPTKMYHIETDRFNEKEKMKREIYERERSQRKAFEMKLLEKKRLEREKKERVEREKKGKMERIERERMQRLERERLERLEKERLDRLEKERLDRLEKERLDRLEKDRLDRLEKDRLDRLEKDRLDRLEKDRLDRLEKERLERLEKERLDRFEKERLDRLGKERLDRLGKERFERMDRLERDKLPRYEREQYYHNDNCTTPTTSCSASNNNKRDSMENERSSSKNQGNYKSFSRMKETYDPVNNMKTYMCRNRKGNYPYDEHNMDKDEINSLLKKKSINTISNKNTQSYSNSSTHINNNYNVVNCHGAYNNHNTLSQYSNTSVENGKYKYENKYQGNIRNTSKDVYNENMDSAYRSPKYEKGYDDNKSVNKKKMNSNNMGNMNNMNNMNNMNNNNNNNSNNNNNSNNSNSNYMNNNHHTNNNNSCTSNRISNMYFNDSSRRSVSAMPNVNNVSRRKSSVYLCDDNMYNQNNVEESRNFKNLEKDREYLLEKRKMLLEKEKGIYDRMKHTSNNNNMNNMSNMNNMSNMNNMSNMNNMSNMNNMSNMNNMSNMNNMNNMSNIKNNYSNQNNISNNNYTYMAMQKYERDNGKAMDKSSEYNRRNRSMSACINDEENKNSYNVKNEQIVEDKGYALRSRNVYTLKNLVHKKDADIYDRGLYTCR

Compound	Pfnek-1 inhibitory activity (in words) (Pfnek-1)	IC50 (Pfnek-1; [3]) [µM]	IC50 [1, 4] [µM]	also measured
COC1=C(Br)[C@H](O)[C@@]2(C=C1Br)CC(C(=O)NCCCOc1c(Br)cc(C(O)CNC(=O)C3=NO[C@]4(C=C(Br)C(OC)=C(Br)[C@@H]4O)C3)cc1Br)=NO2 (stereo partly shown) [Compound 2, 11-deoxyfistularin-3]	inactive	> 50	> 100	Growth inhibition diameter, E. coli (Escherichia coli; [5]): 0 mm; Growth inhibition diameter, S. aureus (Staphylococcus aureus; [5]): 0 mm
O=C(N[C@H](CO)[C@H](O)c1ccc([N+](=O)[O-])cc1)C(Cl)Cl [chloramphenicol, reference compound]	–	–	–	Growth inhibition diameter, E. coli (Escherichia coli; 30 μg/disc): 17 mm
CC(C)=CCCC(C)=CCC1(CC(=O)O)CC(O)C=CC1=O (stereo not drawn) [2-(1′β-geranyl-5′β-hydroxy-2′-oxocyclohex-3′-enyl)acetic acid]	–	–	–	Activity against P. falciparum (in words) [2]: modest activities
O=C1Cc2cc(O)c(Br)cc2O1 [Compound 6b, 6-bromo-5-hydroxy-3H-benzofuran-2-one]	inactivity	> 50	17	–
gentamycin [reference compound]	–	–	–	Growth inhibition diameter, S. aureus (Staphylococcus aureus; 10 μg/disc): 16 mm
O=C1Cc2c(cc(Br)c(O)c2Br)O1 [Compound 6a, 4,6-Dibromo-5-hydroxy-3H-benzofuran-2-one]	inactivity	> 50	35	–
O=C1Cc2cc(O)ccc2O1 [Compound 5, 5-Hydroxy-3H-benzofuran-2-one]	–	–	29	IC50 (Pfnek-1): > 50 µM
COC(=O)Cc1c(O)cc(Br)c(O)c1Br [Compound 4a, Methyl (2,4-dibromo-3,6-dihydroxyphenyl)acetate]	most active	~1.8	12	Pfnek-1 activity of 4a relative to 4b (Pfnek-1): five times more active; Antiplasmodial activity against FcB1 P. falciparum (in words) [1]: moderately active; Antibacterial activity against E. coli (in words) (Escherichia coli; 100 μg/disc): inactive; Growth inhibition diameter, E. coli (Escherichia coli; [5]): 0 mm; Antibacterial activity against S. aureus (in words) (Staphylococcus aureus; 100 μg/disc): inactive; Growth inhibition diameter, S. aureus (Staphylococcus aureus; [5]): 0 mm
COC(=O)Cc1cc(O)ccc1O [Compound 8, Methyl (2,5-dihydroxyphenyl)acetate]	inactive	> 50	36	–
COC(=O)Cc1cc(Br)c(O)c(Br)c1O [Compound 12, Methyl (3,5-dibromo-2,4-dihydroxyphenyl)acetate]	inactive	> 50	> 100	Antiplasmodial activity against FcB1 P. falciparum (in words) [1]: inactive
Methyl (3,6-dibenzoyl-4-bromophenyl)acetate [Compound 13b]	inactivity	> 50	–	IC50 [1, 6]: 13 µM
COC(=O)CC1(CC=C(C)CCC=C(C)C)CC(O)C=CC1=O (stereo not drawn) [methyl 2-(1′β-geranyl-5′β-hydroxy-2′-oxocyclohex-3-enyl)acetate]	–	–	–	Activity against P. falciparum (in words) [2]: modest activities
COC1=C(Br)[C@H](O)[C@@]2(C=C1Br)CC(C(=O)NCCCOc1c(Br)cc(CCNC(=O)C3=NO[C@]4(C=C(Br)C(OC)=C(Br)[C@@H]4O)C3)cc1Br)=NO2	inactive	> 50	–	IC50 ([1]; Plasmodium falciparum, FCB1, 48 h): > 100 µM; Antibacterial activity against E. coli (in words) (Escherichia coli; 100 μg/disc): strong antibacterial activities; Growth inhibition diameter, E. coli (Escherichia coli; [5]): 16 mm; Antibacterial activity against S. aureus (in words) (Staphylococcus aureus; 100 μg/disc): strong antibacterial activities; Growth inhibition diameter, S. aureus (Staphylococcus aureus; [5]): 14 mm
COC(=O)Cc1cc(O)c(Br)cc1O [Compound 4b, Methyl (4-bromo-3,6-dihydroxyphenyl)acetate]	moderately active	10	26	–
Methyl (3,6-dibenzoyl-2,4-dibromophenyl)acetate [Compound 13a]	inactivity	> 50	–	IC50 [1, 6]: 22.5 µM

Reference: paper PMC2810230, “Antiplasmodial Activities of Homogentisic Acid Derivative Protein Kinase Inhibitors Isolated from a Vanuatu Marine Sponge Pseudoceratina sp” (Marine Drugs, 2009)
